According to publication PMC8351955, “Targeting Mycobacterium tuberculosis response to environmental cues for the development of effective antitubercular drugs” (PLoS Biology, 2021):
Values joined by “and” are separate entries in the source; they are usually repeats but may differ in a detail not shown here. Equal values may be shown once. Read-outs that look alike come from different tables or passages of the source.

Assays:
[1] = tested on: Mtb; design: method as in PMID 26574016, PMID 27227164; conditions: mice do not form caseous necrotic lesions; cited from earlier work
[2] = tested on: Mtb; design: method as in PMID 26574016, PMID 27227164; conditions: subset of mice failing to respond; cited from earlier work
[3] = tested on: Mtb growth in J774 macrophage-like cells; assay: J774 infection in 96-well plates, mKO fluorescence 6 days post-infection; type: cell-based, Mycobacterium tuberculosis; conditions: for Inhibition of Mtb growth in J774 cells: 10 μM, 6 days post-infection; for % Growth: Fig. 2D, DMSO = 100
Method: For J774 infection in 96-well plates, 1.8 × 10^5 J774 cells were seeded per well in 180 μl of J774 infection media 1 day prior to infection. On the day of the assay, log-phase Mtb constitutively expressing mKO were pelleted and resuspended in 1 ml basal uptake buffer, passed 6× through a tuberculin syringe with a 25 G × 5/8″ needle, then resuspended in J774 infection media to a final OD600 = 0.2. Media was removed from 96-well plate containing the J774 cells, with 140 μl of fresh J774 infection media added back to each well. A volume of 40 μl of the Mtb suspension at OD600 = 0.2 was added to each well, followed by addition of appropriate concentration of compound or DMSO in a 20-μl final volume in J774 infection media (compound final concentration 10 μM, rifampicin final concentration 5 μM, DMSO final concentration 0.1%/well). Bacterial mKO fluorescence was read immediately after infection using a Biotek Synergy Neo2 microplate reader (bottom read monochromator, excitation 543/10 nm, emission 565/10 nm), and again 6 days post-infection. Plates were kept in humidified ziplock bags in a 37°C, 5% CO2 incubator. mKO fluorescence in DMSO-treated control samples were defined as 100% growth, and fluorescence observed in treatment conditions calculated as a percentage from that set value.

[4] = tested on: WT Mtb (Erdman) in primary murine BMDMs; assay: Primary murine bone marrow-derived macrophage infection, CFU; type: cell-based, Mycobacterium tuberculosis; conditions: for CFU/ml: Fig. 2E, 10 µM
Method: C57BL/6J wild-type mice (Jackson Laboratories) were used for extraction of BMDMs. Cells were harvested and expanded in DMEM containing 10% FBS, 15% L-cell conditioned media, 2 mM L-glutamine, 1 mM sodium pyruvate, and penicillin/streptomycin as needed in a 37°C incubator in a 5% CO2 atmosphere. […] Macrophages were lysed with water containing 0.01% sodium dodecyl sulfate and a dilution series of the samples plated on 7H10 agar for CFU determination.

[5] = tested on: CDC1551(rv2390c′::GFP) reporter Mtb strain; conditions: for Normalized % induction: Fig. 2C, DMSO = 100; for Ability to increase rv2390c′::GFP reporter signal in high [Cl−]: pH 7
[6] = tested on: Mtb; assay: Mtb growth assay in cholesterol medium (OD600); conditions: for Inhibition of Mtb growth in cholesterol media: 10 μM, OD600 over 12 days; for OD600: Fig. 2G
Excerpt: (§1) Bacterial growth was tracked by measuring OD600 every 3 days for 12 days. […] Bacterial growth was tracked by measurement of OD600 every 3 days over 12 days.

[7] = tested on: Mtb CDC1551; assay: Intrabacterial drug accumulation assay (LC-MS); conditions: 24-hour exposure, 7H9 pH 7 ± 250 mM NaCl
[8] = tested on: Mtb; assay: Mtb growth assay in standard 7H9 medium (OD600); conditions: Fig. 2F
Excerpt: as §1

[9] = tested on: J774 cells; assay: Intracellular drug accumulation assay in J774 cells (LC-MS); conditions: 24 hours
[10] = tested on: Mtb-infected J774 cells; conditions: 10 μM, 24 hours, 5 days post-infection

SMILES | Efficacy across animals in BALB/c mice [1] | Response in C3HeB/FeJ mice [2] | Inhibition of Mtb growth in J774 cells [3] | % Growth ([3]; average of 4 replicates) | % Growth ([3]; individual replicates) | CFU/ml ([4]; day 2, average) | CFU/ml ([4]; day 2, individual replicates) | CFU/ml ([4]; day 4, average) | CFU/ml ([4]; day 4, individual replicates) | CFU/ml ([4]; day 6, average) | CFU/ml ([4]; day 6, individual replicates) | CFU/ml ([4]; day 8, average) | CFU/ml ([4]; day 8, individual replicates) | Normalized % induction ([5]; average of 3 replicates) | Normalized % induction ([5]; individual replicates) | Ability to increase rv2390c′::GFP reporter signal in high [Cl−] [5] | Inhibition of Mtb growth in cholesterol media [6] | OD600 ([6]; day 3, average) | OD600 ([6]; day 3, individual replicates) | OD600 ([6]; day 6, average) | also measured
NC(=O)c1cnccn1 [pyrazinamide] | uniform efficacy across animals | heterogeneous response | – | – | – | – | – | – | – | – | – | – | – | – | – | – | – | – | – | – | –
COc1ncc(CN2CCN(c3nc4ccccc4o3)CC2)cn1 [JSF-4271, 2-(4-((2-methoxypyrimidin-5-yl)methyl)piperazin-1-yl)benzo[d]oxazole] | – | – | loss of the ability to inhibit Mtb growth | 107.949% | 101.522% and 116.46% and 111.935% and 101.878% | 489333 CFU/ml | 446000 CFU/ml and 482000 CFU/ml and 540000 CFU/ml | 960000 CFU/ml | 1040000 CFU/ml and 1100000 CFU/ml and 740000 CFU/ml | 2286667 CFU/ml | 1960000 CFU/ml and 2060000 CFU/ml and 2840000 CFU/ml | 6800000 CFU/ml | 6000000 CFU/ml and 5400000 CFU/ml and 9000000 CFU/ml | 98.3426% | 93.208% and 98.8641% and 102.956% | lost the ability | no longer inhibited Mtb growth | 0.1 | 0.1 | 0.28 | Effect on bacterial load / Mtb growth in primary murine BMDMs ([4]; 10 μM, 8-day infection time course, vs DMSO): loss of the ability to inhibit Mtb growth; OD600 ([6]; day 6, individual replicates): 0.3 (2×) and 0.24; OD600 ([6]; day 9, average): 0.4467; OD600 ([6]; day 9, individual replicates): 0.46 (2×) and 0.42; OD600 ([6]; day 12, average): 0.52; OD600 ([6]; day 12, individual replicates): 0.52 and 0.5 and 0.54; Intrabacterial accumulation in Mtb [7]: decreased accumulation; OD600 ([8]; day 3, average): 0.2; OD600 ([8]; day 3, individual replicates): 0.2 and 0.22 and 0.18; OD600 ([8]; day 6, average): 0.4067; OD600 ([8]; day 6, individual replicates): 0.42 (2×) and 0.38; OD600 ([8]; day 9, average): 0.5267; OD600 ([8]; day 9, individual replicates): 0.54 (2×) and 0.5; OD600 ([8]; day 12, average): 0.6733; OD600 ([8]; day 12, individual replicates): 0.68 (2×) and 0.66; Intracellular accumulation in J774 cells [9]: minimal accumulation; Accumulation in Mtb-infected J774 cells [10]: minimal accumulation
CCSc1ccc(CN2CCN(c3nc4ccccc4o3)CC2)cc1 [JSF-4300, 2-(4-(4-(ethylthio)benzyl)piperazin-1-yl)benzo[d]oxazole] | – | – | continuing to demonstrate the phenotypes seen with the parental C6 compound | 60.6248% | 59.61% and 62.908% and 58.5309% and 61.4502% | 472667 CFU/ml | 482000 CFU/ml and 478000 CFU/ml and 458000 CFU/ml | 660000 CFU/ml | 620000 CFU/ml and 660000 CFU/ml and 700000 CFU/ml | 806667 CFU/ml | 740000 CFU/ml (2×) and 940000 CFU/ml | 966667 CFU/ml | 1080000 CFU/ml and 800000 CFU/ml and 1020000 CFU/ml | 125.329% | 120.3% and 121.44% and 134.248% | continuing to demonstrate the phenotypes seen with the parental C6 compound | continuing to demonstrate the phenotypes seen with the parental C6 compound | 0.06 | 0.06 | 0.09333 | OD600 ([6]; day 6, individual replicates): 0.1 (2×) and 0.08; OD600 ([6]; day 9, average): 0.1333; OD600 ([6]; day 9, individual replicates): 0.14 (2×) and 0.12; OD600 ([6]; day 12, average): 0.16; OD600 ([6]; day 12, individual replicates): 0.16 and 0.14 and 0.18; Intrabacterial accumulation in Mtb [7]: robust accumulation; OD600 ([8]; day 3, average): 0.1733; OD600 ([8]; day 3, individual replicates): 0.18 (2×) and 0.16; OD600 ([8]; day 6, average): 0.3867; OD600 ([8]; day 6, individual replicates): 0.38 (2×) and 0.4; OD600 ([8]; day 9, average): 0.4933; OD600 ([8]; day 9, individual replicates): 0.48 (2×) and 0.52; OD600 ([8]; day 12, average): 0.6467; OD600 ([8]; day 12, individual replicates): 0.64 (2×) and 0.66; Intracellular accumulation in J774 cells [9]: robust accumulation; Accumulation in Mtb-infected J774 cells [10]: robust accumulation
COc1nc2ccc(Br)cc2cc1[C@@H](c1ccccc1)[C@@](O)(CCN(C)C)c1cccc2ccccc12 [bedaquiline] | uniform efficacy across animals | heterogeneous response | – | – | – | – | – | – | – | – | – | – | – | – | – | – | – | – | – | – | –
